Literature values as cited in patent US7767227B2, “Galenical form for oral administration with prolonged release of molsidomine” (Therabel Pharmaceuticals Limited, priority 2000, dated 2010).
Where two headings read alike, the source gives them in different places.

In the case of `CCOC(=O)[N-]c1cn(N2CCOCC2)n[o+]1` [Molsidomine, N-(ethoxycarbonyl)-3-(4-morpholinyl)sydnone imine], the period of action (4 mg dose) is listed as 4 to 5 h and the period of action (8 mg dose) is listed as 10 to 12 h.
